Measurements published in US7897582B2, “Oligonucleotide compositions and methods for the modulation of the expression of B7 protein” (Isis Pharmaceuticals, Inc., priority 2003, dated 2011).
Strand notation (5' to 3'): a small letter for the sugar, then the base; units joined by * are phosphorothioate-linked, units joined directly phosphodiester-linked; [ ] holds rarer units or linkages, { } end groups; capitals alone tell only the bases. e = 2'-O-(2-methoxyethyl) (MOE); [5mC] = 5-methylcytosine; d = 2'-deoxy (DNA)

What was measured:
Assay type in all cases: cell-based
[1] = test system: human B7-1; experiment: Cell surface expression of B7-1 in pcB7-1-transfected COS-7 cells by flow cytometry; settings: for % B7-1 EXPRESSION: human B7 cell surface expression, Table 16; for % Surface Inhibition / % Surface Expression: COS-7 cells, B7-1 cell surface; for % Surface Expression: basal = 100%
Experimental: The ability of oligonucleotides to inhibit B7-1 expression was evaluated by measuring the cell surface expression of B7-1 in transfected COS-7 cells by flow cytometry.
(§1) A T-175 flask was seeded at 75% confluency with COS-7 cells (ATCC accession No. CRL 1651). The plasmid pcB7-1 was introduced into cells by standard calcium phosphate transfection. Following a 4 hour transfection, the cells were trypsinized and seeded in 12-well dishes at 80% confluency. The cells were allowed to adhere to the plastic for 1 hour and were then washed with phosphate-buffered saline (PBS). OptiMEM™ (GIBCO-BRL, Gaithersburg, Md.) medium was added along with 15 μg/mL of Lipofectin™ (GIBCO-BRL, Gaithersburg, Md.) and oligonucleotide at the indicated concentrations. After four additional hours, the cells were washed with phosphate buffered saline (PBS) and incubated with fresh oligonucleotide at the same concentration in DMEM (Dulbecco et al., Virol., 1959, 8, 396; Smith et al., Virol., 1960, 12, 185) with 10% fetal calf sera (FCS).
(§2) In order to monitor the effects of oligonucleotides on cell surface expression of B7-1, treated COS-7 cells were harvested by brief trypsinization 24-48 hours after oligonucleotide treatment. The cells were washed with PBS, then resuspended in 100 μL of staining buffer (PBS, 0.2% BSA, 0.1% azide) with 5 μL conjugated anti-B7-1-antibody (i.e., anti-hCD80-FITC, Ancell, Bayport, Minn.; FITC: fluorescein isothiocyanate). The cells were stained for 30 minutes at 4° C., washed with PBS, resuspended in 300 μL containing 0.5% paraformaldehyde. Cells were harvested and the fluorescence profiles were determined using a flow cytometer.
(§3) B7 antisense oligonucleotides were tested for their effect on cell surface expression of both B7-1 and B7-2. Cell surface expression was measured as described in Example 1. Experiments were done for both human B7 and mouse B7.
The oligonucleotides were screened as described in Example 2 except that the concentration of oligonucleotide was varied as shown in Table 18.

[2] = test system: human B7-2; experiment: Cell surface expression of B7-2 in transfected COS-7 cells by flow cytometry; settings: human B7 cell surface expression; Table 16
Experimental: as §1, §2
In an initial screen, the ability of hB7-2 oligonucleotides to inhibit B7-2 expression was evaluated by measuring the cell surface expression of B7-2 in transfected COS-7 cells by flow cytometry. The methods used were similar to those given in Example 2, with the exceptions that (1) COS-7 cells were transfected with the plasmids pbcB7-2 or BBG-58, a human ICAM-1 (CD54) expression vector (R&D Systems, Minneapolis, Minn.) introduced into cells by standard calcium phosphate transfection, (2) the oligonucleotides used were those described in Table 2, and (3) a conjugated anti-B7-2 antibody (i.e., anti-hCD86-FITC or anti-CD86-PE, PharMingen, San Diego, Calif.; PE: phycoerythrin) was used during flow cytometry.
as §3
The oligonucleotides were screened as described in Example 2 except that the concentration of oligonucleotide was varied as shown in Table 19.

[3] = test system: Human B7-1 mRNA; experiment: Human B7-1 mRNA expression in COS-7 cells, screened as in Example 4

Substance | % B7-1 EXPRESSION [1] [%] | % B7-2 EXPRESSION [2] [%] | % mRNA EXPRESSION ([3]; human B7-1 mRNA, Table 7) [%] | % Surface Inhibition ([1]; dose 10 nM) [%] | % Surface Expression ([1]; dose 10 nM) [%] | % Surface Inhibition ([1]; dose 30 nM) [%] | % Surface Expression ([1]; dose 30 nM) [%] | % Surface Inhibition ([1]; dose 100 nM) [%] | % Surface Expression ([1]; dose 100 nM) [%] | % Surface Inhibition ([1]; dose 300 nM) [%] | % Surface Expression ([1]; dose 300 nM) [%] | % mRNA EXPRESSION ([3]; 10 nM, COS-7, Table 8) [%] | % mRNA INHIBITION ([3]; 10 nM, COS-7, Table 8) [%] | % mRNA EXPRESSION ([3]; 30 nM, COS-7, Table 8) [%] | % mRNA INHIBITION ([3]; 30 nM, COS-7, Table 8) [%] | % mRNA EXPRESSION ([3]; 100 nM, COS-7, Table 8) [%] | % mRNA INHIBITION ([3]; 100 nM, COS-7, Table 8) [%] | % mRNA EXPRESSION ([3]; 300 nM, COS-7, Table 8) [%] | % mRNA INHIBITION ([3]; 300 nM, COS-7, Table 8) [%]
22324 (eG*eG*e[5mC]*e[5mC]*eA*dT*dA*dT*dA*dT*dT*d[5mC]*dA*dT*dG*eT*e[5mC]*e[5mC]*e[5mC]*e[5mC]; antisense) [compound 22324] | 37 | 91 | 46 | – | – | – | – | – | – | – | – | – | – | – | – | – | – | – | –
22325 (eG*e[5mC]*e[5mC]*eA*eG*dG*dA*dT*d[5mC]*dA*d[5mC]*dA*dA*dT*dG*eG*eA*eG*eA*eG) [compound 22325] | 32 | 89 | 46 | – | – | – | – | – | – | – | – | – | – | – | – | – | – | – | –
22334 (antisense eA*eA*eG*e[5mC]*eA*dG*dT*dA*dG*dG*dT*d[5mC]*dA*dG*dG*e[5mC]*eA*eG*e[5mC]*eA) [compound 22334] | 28 | 92 | 43 | – | – | – | – | – | – | – | – | – | – | – | – | – | – | – | –
22335 (antisense e[5mC]*e[5mC]*eT*eT*eG*d[5mC]*dT*dT*d[5mC]*dT*dG*d[5mC]*dG*dG*dA*e[5mC]*eA*e[5mC]*eT*eG) [compound 22335] | 23 | 95 | 43 | 19 | 81 | 31 | 69 | 53 | 47 | 62 | 38 | 81 | 19 | 63 | 37 | 43 | 57 | 35 | 65
22337 (antisense eT*eG*eA*e[5mC]*eG*dG*dA*dG*dG*d[5mC]*dT*dA*d[5mC]*d[5mC]*dT*eT*e[5mC]*eA*eG*eA) [compound 22337] | 48 | 101 | 42 | – | – | – | – | – | – | – | – | – | – | – | – | – | – | – | –
22338 (antisense eG*e[5mC]*e[5mC]*eT*e[5mC]*dA*dT*dG*dA*dT*d[5mC]*d[5mC]*d[5mC]*d[5mC]*dA*e[5mC]*eG*eA*eT*e[5mC]) [compound 22338] | 22 | 96 | 40 | 22 | 78 | 35 | 65 | 50 | 50 | 60 | 40 | 68 | 32 | 60 | 40 | 53 | 47 | 41 | 59
